Data as given in PubChem BioAssay AID2060897 (Molecular Pharmacology Branch, DTP, NCI, 2025).
pIC50: −log10 of the molar value.

Test system: 966289-007-R4-J1-PDC complex spheroid viability
Assay: Anticancer human tumor 966289-007-R4-J1-PDC patient-derived pancreatic adenocarcinoma cell line growth inhibition [RAS]
Conditions: for pIC50: curve of first compound; for viability, T/C: stronger effect = lower value
Source text: RAS pathway inhibitors in Combinations in Complex Spheroids
A high-throughput screen of multi-cell type tumor spheroids was designed to identify active combinations of RAS pathway inhibitors and targeted small molecules. Complex spheroids include a stromal component modeled by human endothelial cells (HUVEC) and fibroblasts modeled by human mesenchymal stem cells (MSCs). The concentration ranges selected for each drug and investigational agent were based upon clinically achievable concentrations if the clinical Cmax of the agent was known.
Compounds. The drugs and investigational agents: abemaciclib (NSC768073), cobimetinib (NSC768068), divarasib (GDC6063, NSC841802), docetaxel (NSC628503), GDC-1971 (RLY-1971, NSC841576), gemcitabine (NSC613327), inavolisib (NSC800729), ipatasertib (NSC767898), KB-0742 (NSC834161), MRTX-1133 (NSC836407), osimertinib (NSC779217), RMC-4630 (NSC839698), RMC-6236 (NSC851965), RMC-6291 (NSC852671), Ro-3306 (NSC812927), sapanisertib (NSC764658), SN-38 (NSC673596), staurosporine (NSC755774), SY5609 (NSC837396), and tovorafenib (DAY101, NSC766906), were obtained from the National Cancer Institute (NCI) Developmental Therapeutics Program Chemical Repository. The FDA-approved anticancer drug set is available from the NCI Developmental Therapeutics Program. […] The stock solutions were prepared in dimethyl sulfoxide (DMSO, Sigma-Aldrich, St. Louis, MO, cat. D2650) at 800-fold the tested concentration and stored at -70 degrees C prior to their use. All drugs and investigational agents were tested over a range starting from a high concentration at or near the clinical Cmax and decreasing in half-log increments. If the clinical Cmax for an agent had not been determined, the highest concentration tested was 10 microM.
Cell Culture. All cells were maintained in an incubator at 37 degrees C and 5% CO2 with 95% humidity. The PDC lines were cultured according to standard operating procedures established by the NCI PDMR. All PDCs were thawed and cultured in Matrigel-coated flasks prepared with a working solution of 1X Ham's F-12 nutrient mix, without supplementation (Invitrogen, Waltham, MA, cat. 11765054), 100 U/mL penicillin-streptomycin (Invitrogen, cat. 15140122), and 2.5% Matrigel (Corning Inc., Corning, NY, cat. 354248) for the first three passages. The 362531-283-R-J2-PDC and 782815-120-R-J1-PDC lines were cultured in 6C/Colon 1B media, which includes advanced DMEM/F-12 (Thermo Fisher Scientific, cat. 12634028), 10 mM HEPES (Thermo Fisher Scientific, cat. 15630080), 1X GlutaMAX supplement (Thermo Fisher Scientific, cat. 35050061), 0.1 mg/mL primocin (InvivoGen, San Diego, CA, cat. ant-pm-2), 10% defined fetal bovine serum, heat inactivated (HyClone Laboratories Inc., Logan, UT, cat. SH30070.03HI), 50% L-WRN conditioned media (ATCC, cat. CRL-3276), 1.25 mM N-Acetyl-L-cysteine (Sigma-Aldrich, cat. A9165), 10 mM nicotinamide (Sigma-Aldrich, cat. N0636), 1X B-27 supplement (Thermo Fisher Scientific, cat. 17504044), 1X N-2 supplement (Thermo Fisher Scientific, cat. 17502048), 50 ng/mL human EGF (Thermo Fisher Scientific, cat. PHG0311), and 10 microM Y-27632 dihydrochloride (Tocris Bioscience, cat. 1254). The K12877-001-R-J1-PDC line was cultured in 6I media, which includes all 6C/Colon 1B media plus 10 ng/mL human FGF-10 (PeproTech, cat. 100-26), 1 ng/mL human FGF-2 (PeproTech, cat. 100-18B), 1 µM prostaglandin E2 (Tocris Bioscience, cat. 2296), […] hydrocortisone (Sigma-Aldrich, cat. H4001), and […] bovine insulin (Sigma-Aldrich, cat. I6634). The K86415-001-R-J1-PDC line was cultured in 6D media, which includes all 6C/Colon 1B media components minus the L-WRN conditioned media. The 485176-168-R4-J1-PDC was cultured in PANC media, which includes all 6C/Colon 1B media plus 100 ng/mL human FGF-10 (PeproTech, cat. 100-26), 500 nM SB-431542 (Selleckchem, cat. S1067), and 10 nM gastrin (Tocris Bioscience, cat. 3006). […]
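Further: spheroids exposed to agents for one week before readout.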
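Wherever viability, T/C is given: percent viability relative to DMSO vehicle control wells as 100%.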

SMILES: CC1(C)CCC(Nc2ncc(C(F)(F)F)c(-c3c[nH]c4c(P(C)(C)=O)c(C#N)ccc34)n2)CN1 (configuration not stated) + C=CC(=O)N1CCN(c2nc(OCC3CCCN3C)nc3c(F)c(-c4nc(N)cc(C)c4C(F)(F)F)c(Cl)cc23)C(C)C1
- pIC50 (second compound 0.00316 µM): 7.99
- pIC50 (second compound 0.01 µM): 7.91
- pIC50 (second compound 0.0316 µM): 8.17
- pIC50 (second compound 0.1 µM): 7.88
- pIC50 (second compound 0.316 µM): 7.91
- pIC50 (second compound 1 µM): 7.86
- viability, T/C (second compound 0.00316 µM, first compound 0.000949 µM): 103%
- viability, T/C (second compound 0.00316 µM, first compound 0.003 µM): 113%
- viability, T/C (second compound 0.00316 µM, first compound 0.00949 µM): 52.6%
- viability, T/C (second compound 0.00316 µM, first compound 0.03 µM): 14%
- viability, T/C (second compound 0.00316 µM, first compound 0.0949 µM): 9.67%
- viability, T/C (second compound 0.00316 µM, first compound 0.3 µM): 8.68%
- viability, T/C (second compound 0.01 µM, first compound 0.000949 µM): 102%
- viability, T/C (second compound 0.01 µM, first compound 0.003 µM): 124%
- viability, T/C (second compound 0.01 µM, first compound 0.00949 µM): 61.4%
- viability, T/C (second compound 0.01 µM, first compound 0.03 µM): 16.4%
- viability, T/C (second compound 0.01 µM, first compound 0.0949 µM): 8.51%
- viability, T/C (second compound 0.01 µM, first compound 0.3 µM): 9.49%
- viability, T/C (second compound 0.0316 µM, first compound 0.000949 µM): 97.4%
- viability, T/C (second compound 0.0316 µM, first compound 0.003 µM): 99.6%
- viability, T/C (second compound 0.0316 µM, first compound 0.00949 µM): 30.1%
- viability, T/C (second compound 0.0316 µM, first compound 0.03 µM): 15.9%
- viability, T/C (second compound 0.0316 µM, first compound 0.0949 µM): 10.5%
- viability, T/C (second compound 0.0316 µM, first compound 0.3 µM): 9.47%
- viability, T/C (second compound 0.1 µM, first compound 0.000949 µM): 118%
- viability, T/C (second compound 0.1 µM, first compound 0.003 µM): 117%
- viability, T/C (second compound 0.1 µM, first compound 0.00949 µM): 64%
- viability, T/C (second compound 0.1 µM, first compound 0.03 µM): 13.9%
- viability, T/C (second compound 0.1 µM, first compound 0.0949 µM): 9.91%
- viability, T/C (second compound 0.1 µM, first compound 0.3 µM): 8.45%
- viability, T/C (second compound 0.316 µM, first compound 0.000949 µM): 103%
- viability, T/C (second compound 0.316 µM, first compound 0.003 µM): 108%
- viability, T/C (second compound 0.316 µM, first compound 0.00949 µM): 59.7%
- viability, T/C (second compound 0.316 µM, first compound 0.03 µM): 15.8%
- viability, T/C (second compound 0.316 µM, first compound 0.0949 µM): 8.13%
- viability, T/C (second compound 0.316 µM, first compound 0.3 µM): 8.27%
- viability, T/C (second compound 1 µM, first compound 0.000949 µM): 113%
- viability, T/C (second compound 1 µM, first compound 0.003 µM): 118%
- viability, T/C (second compound 1 µM, first compound 0.00949 µM): 67.2%
- viability, T/C (second compound 1 µM, first compound 0.03 µM): 15.6%
- viability, T/C (second compound 1 µM, first compound 0.0949 µM): 9.94%
- viability, T/C (second compound 1 µM, first compound 0.3 µM): 7.89%
